Measurements: patent US20060069084A1, “Methods of inhibiting kinases” (priority 2001, published 2006)

Assays:
Type in all cases: biochemical
Settings in all cases: inhibit 50% of activity at 50 μM
JAK1 = biological target: T1, JAK1 (Homo sapiens, UniProt P23458); assay: JAK1 kinase domain capture-based ELISA kinase assay
T1 construct: The kinase domain of humanJAK1 was amplified from U937mRNA; His tag (from pFastBac HTb vector; nickel chelate purification) (N); made in house; host or cells: baculovirus; virus made in Sf9, large-scale expression in High Five insect cells
Procedure, shortened: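 His-tagged human JAK1 kinase domain was expressed via baculovirus in High Five insect cells and purified on nickel chelate resin. Phosphotyrosine was quantified by ELISA with peroxidase-linked PY20 after capture on avidin plates.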

JAK2 = biological target: T2, JAK2 (Homo sapiens, UniProt O60674); assay: JAK2 kinase domain capture-based ELISA kinase assay
T2 construct: The kinase domain of humanJAK2 was amplified from U937mRNA; His tag (from pFastBac HTc vector; nickel chelate purification) (N); made in house; host or cells: baculovirus; virus made in Sf9, large-scale expression in High Five insect cells
Procedure, shortened: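 His-tagged human JAK2 kinase domain was baculovirus-expressed in High Five insect cells and nickel-purified. Phosphotyrosine was captured on avidin plates and detected by ELISA with peroxidase-linked PY20.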

JAK3 = biological target: T3, JAK3 (Homo sapiens, UniProt P52333); assay: JAK3 kinase domain capture-based ELISA kinase assay
T3 construct: The kinase domain of humanJAK3 was amplified from U937mRNA; His tag (from pFastBac HTb vector; nickel chelate purification) (N); made in house; host or cells: baculovirus; virus made in Sf9, large-scale expression in High Five insect cells
Procedure, shortened: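 The human JAK3 kinase domain was His-tagged, baculovirus-expressed in High Five cells and nickel-affinity purified. Tyrosine phosphorylation was quantified on avidin-coated ELISA plates with peroxidase-linked anti-phosphotyrosine antibody PY20.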

TYK2 = biological target: T4, TYK2 (Homo sapiens, UniProt P29597); assay: TYK2 kinase domain capture-based ELISA kinase assay
T4 construct: The kinase domain of humanTYK2 was amplified from A549 mRNA; His tag (from pBlueBacHis2A vector; nickel chelate purification) (N); made in house; host or cells: baculovirus; virus made in Sf9, large-scale expression in High Five insect cells
T4 sequence (P29597 897-1176 limits assumed): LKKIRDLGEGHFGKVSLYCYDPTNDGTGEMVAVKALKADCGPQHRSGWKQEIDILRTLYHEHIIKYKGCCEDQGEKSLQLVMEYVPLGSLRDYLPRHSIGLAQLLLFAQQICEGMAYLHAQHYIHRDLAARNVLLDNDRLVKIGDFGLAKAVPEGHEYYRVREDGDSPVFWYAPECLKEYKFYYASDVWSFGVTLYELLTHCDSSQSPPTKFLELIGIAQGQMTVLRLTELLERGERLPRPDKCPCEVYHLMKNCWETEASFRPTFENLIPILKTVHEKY
Procedure, shortened: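 His-tagged human TYK2 kinase domain expressed in baculovirus-infected insect cells and Ni-affinity purified. Biotinylated peptide substrate (5 μM final); phosphotyrosine captured on avidin plate and detected by peroxidase-linked PY20 antibody ELISA.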

T3 sequence (P52333 822-1111 limits assumed): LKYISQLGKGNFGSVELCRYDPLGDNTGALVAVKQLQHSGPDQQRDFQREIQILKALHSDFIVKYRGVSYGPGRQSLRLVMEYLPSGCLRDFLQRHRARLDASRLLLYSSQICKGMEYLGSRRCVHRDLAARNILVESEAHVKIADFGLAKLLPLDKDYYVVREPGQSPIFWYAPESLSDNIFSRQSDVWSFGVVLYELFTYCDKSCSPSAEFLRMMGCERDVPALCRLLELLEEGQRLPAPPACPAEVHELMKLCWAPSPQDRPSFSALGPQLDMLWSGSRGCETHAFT
T2 sequence (O60674 849-1124 limits assumed): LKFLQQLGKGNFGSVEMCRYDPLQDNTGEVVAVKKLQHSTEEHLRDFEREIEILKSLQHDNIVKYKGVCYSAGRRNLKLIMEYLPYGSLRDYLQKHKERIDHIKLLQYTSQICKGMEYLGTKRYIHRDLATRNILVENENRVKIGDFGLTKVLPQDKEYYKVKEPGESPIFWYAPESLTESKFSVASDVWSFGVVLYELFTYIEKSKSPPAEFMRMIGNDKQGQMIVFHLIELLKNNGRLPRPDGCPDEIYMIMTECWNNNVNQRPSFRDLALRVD
T1 sequence (P23458 875-1153 limits assumed): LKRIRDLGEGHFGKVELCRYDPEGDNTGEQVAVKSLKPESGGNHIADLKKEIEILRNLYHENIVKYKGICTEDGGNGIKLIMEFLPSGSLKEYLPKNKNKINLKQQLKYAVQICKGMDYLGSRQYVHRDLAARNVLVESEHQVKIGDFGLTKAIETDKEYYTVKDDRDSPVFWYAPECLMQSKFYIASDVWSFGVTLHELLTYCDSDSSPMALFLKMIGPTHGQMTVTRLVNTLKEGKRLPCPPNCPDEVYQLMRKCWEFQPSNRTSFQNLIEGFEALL

| Structure (SMILES) | IC50 (JAK1; Table 5) | IC50 (JAK2; Table 5) | IC50 (JAK3; Table 5) | IC50 (TYK2; Table 5) | IC50 (JAK1; Table 6) | IC50 (JAK2; Table 6) | IC50 (JAK3; Table 6) | IC50 (TYK2; Table 6) |
| --- | --- | --- | --- | --- | --- | --- | --- | --- |
| CCN(CCO)c1ccc(Nc2nc(-c3cccc4ccccc34)cn3ccnc23)cc1 [drawing 68] | < 50 µM | < 50 µM | < 50 µM | < 50 µM |  |  |  |  |
| CCN(CCO)c1ccc(Nc2nc(-c3ccccc3CO)cn3ccnc23)cc1 [drawing 69] | < 50 µM | < 50 µM | < 50 µM | < 50 µM |  |  |  |  |
| Nc1cccc(-c2cn3ccnc3c(Nc3ccccc3)n2)c1 [drawing 71] | < 50 µM | < 50 µM | < 50 µM | < 50 µM |  |  |  |  |
| CCN(CCO)c1ccc(Nc2nc(Br)cn3ccnc23)cc1 [drawing 83] | < 50 µM | < 50 µM | < 50 µM | < 50 µM |  |  |  |  |
| COCCNc1nc(-c2ccccc2)cn2ccnc12 [drawing 85] | < 50 µM | < 50 µM | < 50 µM | < 50 µM |  |  |  |  |
| Nc1cccc(-c2cn3ccnc3c(Nc3ccccc3)n2)c1 [drawing 87] |  |  |  |  | < 50 µM | < 50 µM | > 50 µM | < 50 µM |
| CCN(CCO)c1ccc(Nc2nc(-c3cccc4ccccc34)cn3ccnc23)cc1 [drawing 94] |  |  |  |  | < 50 µM | < 50 µM | > 50 µM | > 50 µM |
| CCN(CCO)c1ccc(Nc2nc(-c3ccccc3CO)cn3ccnc23)cc1 [drawing 96] |  |  |  |  | < 50 µM | < 50 µM | > 50 µM | < 50 µM |
| CCN(CCO)c1ccc(Nc2nc(Br)cn3ccnc23)cc1 [drawing 101] |  |  |  |  | < 50 µM | < 50 µM | > 50 µM | < 50 µM |

Results, then the molecule that gave them:

| IC50 (JAK1; Table 5) | IC50 (JAK2; Table 5) | IC50 (JAK3; Table 5) | IC50 (TYK2; Table 5) | IC50 (JAK1; Table 6) | IC50 (JAK2; Table 6) | IC50 (JAK3; Table 6) | IC50 (TYK2; Table 6) | Structure (SMILES) |
| --- | --- | --- | --- | --- | --- | --- | --- | --- |
| < 50 µM | < 50 µM | < 50 µM | < 50 µM |  |  |  |  | c1cc(-c2cn3ccnc3c(Nc3ccc(N4CCOCC4)cc3)n2)ccn1 [drawing 61] |
| < 50 µM | < 50 µM | < 50 µM | < 50 µM |  |  |  |  | c1cncc(-c2cn3ccnc3c(Nc3ccc(N4CCOCC4)cc3)n2)c1 [drawing 62] |
| < 50 µM | < 50 µM | < 50 µM | < 50 µM |  |  |  |  | OCc1ccccc1-c1cn2ccnc2c(Nc2ccc(N3CCOCC3)cc2)n1 [drawing 64] |
| < 50 µM | < 50 µM | < 50 µM | < 50 µM |  |  |  |  | Oc1ccc(-c2cn3ccnc3c(N3CCOCC3)n2)cc1 [drawing 75] |
| < 50 µM | < 50 µM | < 50 µM | < 50 µM |  |  |  |  | Brc1cn2ccnc2c(Nc2ccc(N3CCOCC3)cc2)n1 [drawing 82] |
|  |  |  |  | > 50 µM | < 50 µM | > 50 µM | > 50 µM | Oc1ccc(-c2cn3ccnc3c(N3CCOCC3)n2)cc1 [drawing 90] |
|  |  |  |  | < 50 µM | < 50 µM | > 50 µM | > 50 µM | COCCNc1nc(-c2ccccc2)cn2ccnc12 [drawing 93] |
|  |  |  |  | < 50 µM | < 50 µM | > 50 µM | < 50 µM | Brc1cn2ccnc2c(Nc2ccc(N3CCOCC3)cc2)n1 [drawing 100] |
|  |  |  |  | < 50 µM | < 50 µM | > 50 µM | < 50 µM | c1cc(-c2cn3ccnc3c(Nc3ccc(N4CCOCC4)cc3)n2)ccn1 [drawing 120] |
|  |  |  |  | < 50 µM | < 50 µM | > 50 µM | < 50 µM | c1cncc(-c2cn3ccnc3c(Nc3ccc(N4CCOCC4)cc3)n2)c1 [drawing 131] |
|  |  |  |  | < 50 µM | < 50 µM | > 50 µM | > 50 µM | OCc1ccccc1-c1cn2ccnc2c(Nc2ccc(N3CCOCC3)cc2)n1 [drawing 142] |
